Source: patent publication EP2292237A1, “Sigma ligands for the prevention or treatment of pain induced by chemotherapy” (Laboratorios del. Dr. Esteve, S.A., priority 2009, dated 2011)
“Also recorded” adds a separate entry of the source. Like-named read-outs stand apart in the source and are kept apart here.

Key:
CD-1 mice [1] = experiment: Acetone test: expression of paclitaxel-induced cold allodynia, single s.c. injection on day 10; assay type: in vivo; settings: for expression of cold allodynia induced by paclitaxel: acute treatment 32-64 mg/kg s.c. on day 10 in mice pretreated with paclitaxel; for response to acetone of control (paclitaxel-vehicle treated) animals: acute treatment 32 or 64 mg/kg s.c. on day 10; for duration of hind paw licking/biting (acetone test) versus saline: single s.c. injection 64 mg/kg in mice pretreated with paclitaxel-vehicle (Figs. 7 and 8)
Protocol: Experiments were performed in CD-1 mice (Charles River, U.S.A.) with at least n = 10/experimental group. Mice weighing 25-30 g were used. The animals were housed in colony cages with free access to food and water prior to the experiments. They were maintained in temperature- and light-controlled rooms (22 ± 1 °C, lights on at 08.00 h and off at 20.00 h, air replacement every 20 min). Testing took place during the light phase (from 9.00 h to 15.00 h).
Therefore, the cumulative dose was 10 mg/kg per mouse.
Compounds 1a and 1b were dissolved in normal saline just before administration and applied at doses of 32 or 64 mg/kg subcutaneously.
The response of the animals to the different nociceptive stimuli was tested subsequently during 2-4 weeks, depending on the test (see below), without any additional treatment. Each animal was tested only in one nociceptive model. […] Each animal received only one dose of compound 1 a or 1b and was tested in only one nociceptive model.
Procedure for assessment of cold allodynia. Cold allodynia was tested as previously described by Smith et al. in Life Sci., 2004, 74(21), 2593-604, by gently touching the plantar skin of the hind paws with an acetone bubble formed with a syringe connected to a thin polyethylene tube. The mice were housed and habituated for 30 min in transparent plastic boxes (7 x 7 x 13 cm) with a floor made of wire mesh. After the adaptation period, acetone was applied alternately three times to each paw at intervals of 30 s, and the duration and frequency of licking or biting were recorded. A small mirror was placed behind the chambers to allow clear observation of the paws. The time spent licking or biting the paw was recorded by a stopwatch and represented as the cumulative time of licking/biting in the six measurements. Since licking persisting more than 10 s in the experiments was very unusual, a cut-off time of 10 s was used for each trial. […]
On that day, duration of hind paw licking/biting was recorded immediately before (time 0) and at several times (60, 120 and 180 min) after the injection of compound 1 a, compound 1 b or saline.
On that day, duration of hind paw licking/biting was recorded immediately before (time 0) and at several times (60, 120 and 180 min) after the injection of compound 1a, compound 1b or saline.

CD-1 mice [2] = experiment: Acetone test: development of paclitaxel-induced cold allodynia, co-administration with paclitaxel or paclitaxel vehicle; assay type: in vivo; settings: for duration of acetone-induced paw licking/biting: 64 mg/kg s.c. 30 min before each i.p. paclitaxel dose (2 mg/kg), versus paclitaxel + saline; for duration of acetone-induced paw licking/biting / days with statistically significant differences in duration of acetone-induced licking/biting versus paclitaxel + saline: days 1 to 5; for days with statistically significant differences in duration of acetone-induced licking/biting versus paclitaxel + saline: 64 mg/kg s.c. 30 min before each i.p. paclitaxel dose, days after the first dose of paclitaxel; for response of the animals to acetone (duration of hind paw licking/biting): co-administration days 1 to 5 of paclitaxel-vehicle i.p. and compound 64 mg/kg s.c., versus paclitaxel-vehicle + saline, hydrochloride, 64 mg/kg; for development of cold allodynia induced by paclitaxel: co-administration of paclitaxel (2 mg/kg, i.p.) and compound (64 mg/kg, s.c.)
patients = settings: cited from earlier work

SMILES | response to acetone of control (paclitaxel-vehicle treated) animals (CD-1 mice [1]) | duration of hind paw licking/biting (acetone test) versus saline (CD-1 mice [1]) | duration of acetone-induced paw licking/biting (CD-1 mice [2]) | days with statistically significant differences in duration of acetone-induced licking/biting versus paclitaxel + saline (CD-1 mice [2]) | response of the animals to acetone (duration of hind paw licking/biting) (CD-1 mice [2]) | development of cold allodynia induced by paclitaxel (CD-1 mice [2]) | other results
Cl.c1ccc(-n2ncc3c2CCC[C@H]3CCN2CCOCC2)cc1 [compound 1a, (S)-4,5,6,7-tetrahydro-4-(2-(morpholin-4-yl)ethyl)-1-phenyl-1H-indazole hydrochloride] | did not affect | No statistically significant differences | reduced | from day 7 to day 21 | did not significantly modify; also recorded: No statistically significant differences | inhibited | times at which the effect was statistically significant in comparison with the saline-treated group (CD-1 mice [1]; acute treatment 32-64 mg/kg s.c. on day 10, time after administration of the drug): at all times evaluated from 60 to 180 min; expression of cold allodynia induced by paclitaxel (CD-1 mice [1]; hydrochloride): dose-dependently inhibited
Cl.c1ccc(-n2ncc3c2CCC[C@@H]3CCN2CCOCC2)cc1 [compound 1b, (R)-4,5,6,7-tetrahydro-4-(2-(morpholin-4-yl)ethyl)-1-phenyl-1H-indazole hydrochloride] | did not affect | No statistically significant differences | reduced | at days 7, 14 and 21 | did not significantly modify; also recorded: No statistically significant differences | inhibited | expression of cold allodynia induced by paclitaxel (CD-1 mice [1]): inhibited
O=C(O)C(=O)O.c1ccc(-n2ncc3c2CCCC3CCN2CCOCC2)cc1 (stereo not shown) [compound 2, 4,5,6,7-tetrahydro-4-(2-(morpholin-4-yl)ethyl)-1-phenyl-1H-indazole oxalate] | – | – | – | – | – | – | duration of acetone-induced licking/biting (CD-1 mice [1]; acute injection 32-64 mg/kg s.c., 10 days after the first dose of paclitaxel): dose-dependently reduced
CC(=O)O[C@H]1C(=O)[C@@]2(C)[C@H]([C@H](OC(=O)c3ccccc3)[C@]3(O)C[C@H](OC(=O)[C@H](O)[C@@H](NC(=O)c4ccccc4)c4ccccc4)C(C)=C1C3(C)C)[C@]1(OC(C)=O)CO[C@@H]1C[C@@H]2O [paclitaxel, Paclitaxel, reference compound] | – | – | – | – | – | – | control animals treated with paclitaxel that did not show cold allodynia (CD-1 mice [1]; 'non-responders': less than 2 s licking/biting on days 7 and 10 after paclitaxel): Around 33%; cold allodynia (increase in the duration of acetone-induced paw licking/biting) (CD-1 mice [1]; paclitaxel i.p. once daily days 1 to 5, evaluated 10 days after the first dose): developed cold allodynia; duration of paw licking/biting in the acetone test (CD-1 mice [2]; paclitaxel (i.p., 2 mg/kg) and saline (s.c.) co-administered days 1 to 5, began on day 7, maximum on day 14): significant increase; progressing to dose-limiting neurotoxicity in % of patients (patients; paclitaxel dose 135 mg/m^2): 0%; progressing to dose-limiting neurotoxicity in % of patients (patients; paclitaxel dose 175 mg/m^2): 21%; progressing to dose-limiting neurotoxicity in % of patients (patients; paclitaxel dose 250-300 mg/m^2): 71%
